From ChEMBL document CHEMBL3991601, “The target landscape of clinical kinase drugs” (Science, 2017) come the findings set out here.

pKd: −log10 of the molar value. The source made the active and inactive calls. Cut-off read from the data, not from the text of the source, for most assays here: actives have a measured Kd and inactives only a lower limit.

Assay [1] has as its target T1, Serine/threonine-protein kinase A-Raf (Homo sapiens, UniProt P10398).
T1 sequence (P10398 whole entry): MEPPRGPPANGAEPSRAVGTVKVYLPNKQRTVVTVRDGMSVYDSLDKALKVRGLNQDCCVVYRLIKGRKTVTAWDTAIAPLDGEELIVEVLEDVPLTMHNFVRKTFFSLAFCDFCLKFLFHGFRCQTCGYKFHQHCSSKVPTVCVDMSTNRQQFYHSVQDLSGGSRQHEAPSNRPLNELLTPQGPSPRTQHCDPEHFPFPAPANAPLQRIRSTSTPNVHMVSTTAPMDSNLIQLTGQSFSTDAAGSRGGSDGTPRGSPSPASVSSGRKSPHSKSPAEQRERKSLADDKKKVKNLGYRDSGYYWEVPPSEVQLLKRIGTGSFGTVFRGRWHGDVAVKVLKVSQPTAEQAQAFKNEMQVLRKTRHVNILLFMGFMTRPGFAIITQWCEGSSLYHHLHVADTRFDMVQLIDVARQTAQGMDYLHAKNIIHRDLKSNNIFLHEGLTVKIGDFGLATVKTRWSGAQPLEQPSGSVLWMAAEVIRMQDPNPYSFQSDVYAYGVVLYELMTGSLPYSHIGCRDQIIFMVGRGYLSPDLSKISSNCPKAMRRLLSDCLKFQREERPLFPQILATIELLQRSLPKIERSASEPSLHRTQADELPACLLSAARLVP

The target in another assay is T2, Activin receptor type-1B (Homo sapiens, UniProt P36896).
T2 sequence (P36896 whole entry): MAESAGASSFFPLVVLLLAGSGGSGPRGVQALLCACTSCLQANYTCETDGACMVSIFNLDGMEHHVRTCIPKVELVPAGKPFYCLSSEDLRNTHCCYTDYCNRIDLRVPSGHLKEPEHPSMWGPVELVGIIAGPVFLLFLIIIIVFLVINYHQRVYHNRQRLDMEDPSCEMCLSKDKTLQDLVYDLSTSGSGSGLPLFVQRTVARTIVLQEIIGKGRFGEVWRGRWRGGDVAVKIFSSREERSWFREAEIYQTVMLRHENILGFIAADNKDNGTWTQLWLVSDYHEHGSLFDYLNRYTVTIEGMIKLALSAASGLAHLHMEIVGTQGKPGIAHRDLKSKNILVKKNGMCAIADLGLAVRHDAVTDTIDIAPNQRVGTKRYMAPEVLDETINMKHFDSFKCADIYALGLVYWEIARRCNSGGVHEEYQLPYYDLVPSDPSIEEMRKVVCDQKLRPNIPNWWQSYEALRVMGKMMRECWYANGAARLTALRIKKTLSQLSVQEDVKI

The target in assay [2] is GTP-binding nuclear protein Ran (Homo sapiens, UniProt P62826).
Assay [3] deals with cAMP-dependent protein kinase catalytic subunit alpha (Homo sapiens, UniProt P17612).
For assay [4], the target named is 5'-AMP-activated protein kinase catalytic subunit alpha-1 (Homo sapiens, UniProt Q13131).
Assay [5] deals with TRAF2 and NCK-interacting protein kinase (Homo sapiens, UniProt Q9UKE5).
The target in assay [6] is Ribosomal protein S6 kinase alpha-4 (Homo sapiens, UniProt O75676).
For assay [7], the target named is Tyrosine-protein kinase CSK (Homo sapiens, UniProt P41240).
Assay [8] concerns the target Mitogen-activated protein kinase kinase kinase 1 (Homo sapiens, UniProt Q13233).
Assay [9] has as its target T3, Serine/threonine-protein kinase TAO1 (Homo sapiens, UniProt Q7L7X3).
T3 sequence (Q7L7X3 whole entry): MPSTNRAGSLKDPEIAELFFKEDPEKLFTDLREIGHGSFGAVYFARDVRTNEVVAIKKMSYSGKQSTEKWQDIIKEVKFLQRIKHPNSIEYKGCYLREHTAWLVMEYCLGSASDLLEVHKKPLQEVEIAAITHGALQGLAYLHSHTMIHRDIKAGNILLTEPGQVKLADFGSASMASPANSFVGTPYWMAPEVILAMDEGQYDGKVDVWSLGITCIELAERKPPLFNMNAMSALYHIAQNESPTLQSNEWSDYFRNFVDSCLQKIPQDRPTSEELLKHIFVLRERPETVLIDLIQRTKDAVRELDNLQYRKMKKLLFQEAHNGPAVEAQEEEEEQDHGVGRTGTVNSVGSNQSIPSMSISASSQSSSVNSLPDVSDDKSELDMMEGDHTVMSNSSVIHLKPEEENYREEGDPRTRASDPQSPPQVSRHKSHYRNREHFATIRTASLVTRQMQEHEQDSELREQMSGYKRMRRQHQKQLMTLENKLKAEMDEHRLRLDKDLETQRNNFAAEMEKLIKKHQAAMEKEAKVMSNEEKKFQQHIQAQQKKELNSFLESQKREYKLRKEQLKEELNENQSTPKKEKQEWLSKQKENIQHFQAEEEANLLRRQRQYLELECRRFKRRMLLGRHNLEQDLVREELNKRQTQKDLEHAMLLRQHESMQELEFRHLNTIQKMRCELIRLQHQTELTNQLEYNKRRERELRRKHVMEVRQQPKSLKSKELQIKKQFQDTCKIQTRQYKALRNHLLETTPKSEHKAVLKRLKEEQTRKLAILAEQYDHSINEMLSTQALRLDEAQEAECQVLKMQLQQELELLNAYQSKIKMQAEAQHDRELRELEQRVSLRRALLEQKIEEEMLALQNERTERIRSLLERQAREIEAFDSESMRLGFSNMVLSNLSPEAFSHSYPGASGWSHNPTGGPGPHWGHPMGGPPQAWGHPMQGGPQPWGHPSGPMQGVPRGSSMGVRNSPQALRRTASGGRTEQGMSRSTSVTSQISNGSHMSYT

The target in assay [10] is Tyrosine-protein kinase Fyn (Homo sapiens, UniProt P06241).
In assay [11] the target is Putative heat shock protein HSP 90-beta 2 (Homo sapiens, UniProt Q58FF8).
A further assay concerns the target Deoxycytidine kinase (Homo sapiens, UniProt P27707).
Note: in the data inactive means no Kd found up to 30 µM.

Chain of Tyrosine-protein kinase Fyn (P06241 whole entry): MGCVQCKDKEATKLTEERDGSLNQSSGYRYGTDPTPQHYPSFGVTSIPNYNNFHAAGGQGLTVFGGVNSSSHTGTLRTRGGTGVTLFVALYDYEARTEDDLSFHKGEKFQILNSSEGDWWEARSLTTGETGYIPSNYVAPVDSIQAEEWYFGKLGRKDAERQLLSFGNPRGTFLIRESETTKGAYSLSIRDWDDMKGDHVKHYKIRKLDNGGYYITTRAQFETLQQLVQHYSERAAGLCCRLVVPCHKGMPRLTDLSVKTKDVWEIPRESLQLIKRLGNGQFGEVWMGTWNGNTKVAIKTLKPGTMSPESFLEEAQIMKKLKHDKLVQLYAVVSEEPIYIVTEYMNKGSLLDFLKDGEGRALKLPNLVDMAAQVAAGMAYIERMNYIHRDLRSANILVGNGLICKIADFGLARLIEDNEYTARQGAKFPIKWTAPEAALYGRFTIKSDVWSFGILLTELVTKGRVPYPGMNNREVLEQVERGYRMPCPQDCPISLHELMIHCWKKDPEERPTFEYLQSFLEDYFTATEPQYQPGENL
Chain of Putative heat shock protein HSP 90-beta 2 (Q58FF8 whole entry): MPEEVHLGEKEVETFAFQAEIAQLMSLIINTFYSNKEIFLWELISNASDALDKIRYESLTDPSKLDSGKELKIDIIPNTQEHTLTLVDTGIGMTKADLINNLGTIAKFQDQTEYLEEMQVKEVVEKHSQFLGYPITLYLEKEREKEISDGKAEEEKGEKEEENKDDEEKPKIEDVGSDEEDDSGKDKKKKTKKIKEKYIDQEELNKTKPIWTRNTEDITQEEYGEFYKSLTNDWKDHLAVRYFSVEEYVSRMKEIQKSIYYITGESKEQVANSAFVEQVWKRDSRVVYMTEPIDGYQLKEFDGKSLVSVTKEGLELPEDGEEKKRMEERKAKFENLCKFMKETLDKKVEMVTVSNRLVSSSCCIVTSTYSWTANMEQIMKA
Chain of Ribosomal protein S6 kinase alpha-4 (O75676 whole entry): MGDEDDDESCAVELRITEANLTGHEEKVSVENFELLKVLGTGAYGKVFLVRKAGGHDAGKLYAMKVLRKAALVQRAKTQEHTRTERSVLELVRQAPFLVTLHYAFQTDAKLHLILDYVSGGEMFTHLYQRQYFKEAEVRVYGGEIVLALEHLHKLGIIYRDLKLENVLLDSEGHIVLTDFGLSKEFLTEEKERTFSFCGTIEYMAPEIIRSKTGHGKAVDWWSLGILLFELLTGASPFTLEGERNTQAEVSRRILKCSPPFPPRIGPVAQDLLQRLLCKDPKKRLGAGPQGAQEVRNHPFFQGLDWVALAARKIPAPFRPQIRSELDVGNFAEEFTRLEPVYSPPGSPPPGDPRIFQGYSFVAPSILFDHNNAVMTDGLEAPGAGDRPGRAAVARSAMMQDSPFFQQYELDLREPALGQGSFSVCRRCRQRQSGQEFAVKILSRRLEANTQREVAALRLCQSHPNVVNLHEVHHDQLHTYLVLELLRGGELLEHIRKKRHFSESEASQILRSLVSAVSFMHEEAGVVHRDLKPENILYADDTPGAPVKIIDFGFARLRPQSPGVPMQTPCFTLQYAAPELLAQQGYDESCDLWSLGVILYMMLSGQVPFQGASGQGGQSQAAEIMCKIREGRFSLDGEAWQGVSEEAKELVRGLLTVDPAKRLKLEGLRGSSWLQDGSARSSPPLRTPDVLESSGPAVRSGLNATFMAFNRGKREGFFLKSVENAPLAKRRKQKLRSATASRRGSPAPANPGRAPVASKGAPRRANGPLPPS
Chain of Tyrosine-protein kinase CSK (P41240 whole entry): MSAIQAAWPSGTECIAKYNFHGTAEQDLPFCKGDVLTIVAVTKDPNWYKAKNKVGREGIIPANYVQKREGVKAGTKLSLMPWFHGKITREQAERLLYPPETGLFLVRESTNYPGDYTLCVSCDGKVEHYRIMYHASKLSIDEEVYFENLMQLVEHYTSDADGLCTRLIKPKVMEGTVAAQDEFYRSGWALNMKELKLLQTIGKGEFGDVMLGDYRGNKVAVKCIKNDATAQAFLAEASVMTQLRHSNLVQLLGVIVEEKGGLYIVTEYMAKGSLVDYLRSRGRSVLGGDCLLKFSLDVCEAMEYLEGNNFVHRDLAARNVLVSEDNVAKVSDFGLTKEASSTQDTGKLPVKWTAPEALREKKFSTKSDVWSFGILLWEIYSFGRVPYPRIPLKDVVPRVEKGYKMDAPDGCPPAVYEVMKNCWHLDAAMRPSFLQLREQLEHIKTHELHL
Chain of 5'-AMP-activated protein kinase catalytic subunit alpha-1 (Q13131 whole entry): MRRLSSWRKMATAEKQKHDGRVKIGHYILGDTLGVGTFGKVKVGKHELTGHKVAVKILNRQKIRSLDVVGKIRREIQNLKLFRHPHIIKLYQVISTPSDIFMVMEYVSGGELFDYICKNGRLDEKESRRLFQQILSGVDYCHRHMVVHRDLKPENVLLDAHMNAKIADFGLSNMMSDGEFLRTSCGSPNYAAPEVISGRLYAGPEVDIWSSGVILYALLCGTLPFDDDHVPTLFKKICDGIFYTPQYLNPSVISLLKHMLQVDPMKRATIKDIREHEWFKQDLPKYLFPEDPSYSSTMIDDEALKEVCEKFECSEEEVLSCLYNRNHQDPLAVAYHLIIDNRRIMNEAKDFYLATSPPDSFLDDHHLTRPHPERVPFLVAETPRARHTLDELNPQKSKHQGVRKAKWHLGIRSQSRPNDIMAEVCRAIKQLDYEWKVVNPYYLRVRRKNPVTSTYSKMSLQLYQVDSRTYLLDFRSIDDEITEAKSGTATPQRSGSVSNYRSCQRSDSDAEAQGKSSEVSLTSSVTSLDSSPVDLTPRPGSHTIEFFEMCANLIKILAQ
Chain of Mitogen-activated protein kinase kinase kinase 1 (Q13233 whole entry): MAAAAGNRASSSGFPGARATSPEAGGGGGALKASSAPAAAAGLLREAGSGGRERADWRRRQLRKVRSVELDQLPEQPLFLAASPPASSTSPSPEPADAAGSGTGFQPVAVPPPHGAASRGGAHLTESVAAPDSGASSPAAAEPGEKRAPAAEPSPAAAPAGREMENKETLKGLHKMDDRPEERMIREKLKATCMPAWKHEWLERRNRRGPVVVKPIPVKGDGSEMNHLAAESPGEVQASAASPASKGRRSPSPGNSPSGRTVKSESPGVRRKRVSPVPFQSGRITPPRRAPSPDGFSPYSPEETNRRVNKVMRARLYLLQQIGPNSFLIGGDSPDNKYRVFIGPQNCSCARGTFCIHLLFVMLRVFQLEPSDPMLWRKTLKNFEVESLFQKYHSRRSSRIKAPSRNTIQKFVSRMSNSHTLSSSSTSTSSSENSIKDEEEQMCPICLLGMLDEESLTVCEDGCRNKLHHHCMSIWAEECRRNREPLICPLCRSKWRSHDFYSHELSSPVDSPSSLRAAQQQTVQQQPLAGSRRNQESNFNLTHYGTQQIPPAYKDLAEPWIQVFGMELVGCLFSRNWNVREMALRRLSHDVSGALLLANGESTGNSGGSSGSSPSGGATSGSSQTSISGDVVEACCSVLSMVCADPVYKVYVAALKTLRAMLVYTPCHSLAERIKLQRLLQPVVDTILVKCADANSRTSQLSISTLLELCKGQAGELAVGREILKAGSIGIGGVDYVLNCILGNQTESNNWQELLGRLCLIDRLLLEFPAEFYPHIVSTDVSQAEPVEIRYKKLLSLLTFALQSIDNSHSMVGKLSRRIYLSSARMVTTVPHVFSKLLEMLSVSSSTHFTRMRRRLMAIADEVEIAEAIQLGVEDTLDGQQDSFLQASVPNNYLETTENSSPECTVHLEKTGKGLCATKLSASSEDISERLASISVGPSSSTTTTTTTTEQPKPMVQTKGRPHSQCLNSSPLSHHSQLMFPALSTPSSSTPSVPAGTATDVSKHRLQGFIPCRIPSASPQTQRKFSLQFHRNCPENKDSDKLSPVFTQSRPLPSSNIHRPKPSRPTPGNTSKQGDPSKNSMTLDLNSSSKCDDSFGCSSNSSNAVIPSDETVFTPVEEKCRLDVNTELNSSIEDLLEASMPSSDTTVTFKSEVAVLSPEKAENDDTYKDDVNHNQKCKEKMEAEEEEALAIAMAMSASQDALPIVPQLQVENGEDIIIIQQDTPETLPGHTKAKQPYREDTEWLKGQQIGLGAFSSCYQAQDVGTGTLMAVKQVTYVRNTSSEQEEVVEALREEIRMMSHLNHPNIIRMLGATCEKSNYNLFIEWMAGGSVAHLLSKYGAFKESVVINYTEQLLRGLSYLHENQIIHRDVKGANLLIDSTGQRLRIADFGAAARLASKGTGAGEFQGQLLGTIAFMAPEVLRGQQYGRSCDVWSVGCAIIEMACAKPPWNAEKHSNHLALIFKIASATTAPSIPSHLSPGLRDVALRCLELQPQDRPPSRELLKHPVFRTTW
Chain of Deoxycytidine kinase (P27707 whole entry): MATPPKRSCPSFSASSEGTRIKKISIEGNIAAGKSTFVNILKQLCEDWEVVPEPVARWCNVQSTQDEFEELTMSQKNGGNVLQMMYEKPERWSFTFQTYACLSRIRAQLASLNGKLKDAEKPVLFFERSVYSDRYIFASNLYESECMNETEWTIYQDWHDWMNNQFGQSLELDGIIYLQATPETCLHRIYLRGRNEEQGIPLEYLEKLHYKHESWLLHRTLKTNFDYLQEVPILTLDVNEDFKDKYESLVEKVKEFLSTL

As a reminder, the Kd is the constant that tells how readily two partners part at equilibrium. Consider `COC(=O)[C@@]1(O)C[C@H]2O[C@]1(C)n1c3ccccc3c3c4c(c5c6ccccc6n2c5c31)C(=O)NC4` [K-252A], for which the Kd is > 30 µM (inactive) in assay [1]; 15.3 µM (active) on Activin receptor type-1B; > 30 µM (inactive) in assay [2]; > 30 µM (inactive) in assay [3]; 0.461 µM (active) in [4]; 0.01 µM (active) in [5]. For the same compound, the Kd in [6] was 0.432 µM (active); in assay [7] it was > 30 µM (inactive); in assay [8], > 30 µM (inactive); in [9], 18.8 µM (active); in assay [10] it was > 30 µM (inactive); in [11], > 30 µM (inactive). Moreover, at Deoxycytidine kinase, the Kd is > 30 µM (inactive).

As to `O=C(c1ccc(F)c(F)c1Nc1ccc(I)cc1F)N1CC(O)([C@@H]2CCCCN2)C1` [COBIMETINIB], the Kd (in [1]; at Activin receptor type-1B; in [2]; in [3]; in assay [4]; in assay [5]) was > 30 µM (inactive) throughout. Further, the Kd in [6], in assay [7], in assay [8], in [9], in [10] and in [11] was > 30 µM (inactive) throughout. The Kd at Deoxycytidine kinase was > 30 µM (inactive).

As usually defined, the pKd is the Kd on a negative log10 scale, so that one unit is a factor of ten. A higher pKd goes with a low Kd. In the case of `C1=C/COCc2cc(ccc2OCCN2CCCC2)Nc2nccc(n2)-c2cccc(c2)COC/1` [PACRITINIB], the Kd (in [1]; at Activin receptor type-1B; in assay [2]; in assay [3]; in assay [4]; in assay [6]) was > 30 µM (inactive) throughout. Moreover, the Kd in assay [7] is > 30 µM (inactive); in assay [8], > 30 µM (inactive); in assay [9], 2.19 µM (active); in assay [10] it was > 30 µM (inactive); in [11] it was > 30 µM (inactive); on Deoxycytidine kinase, > 30 µM (inactive). In assay [5], this compound had a pKd of 7.05.

In the case of `Cn1cc(-c2ccc(F)c(C(F)(F)F)c2)nc1C1CCN(c2ncnc3[nH]ncc23)CC1` [LY-2584702], the Kd (in [1]; on Activin receptor type-1B; in assay [2]; in [3]; in assay [4]; in [5]) was > 30 µM (inactive) throughout. For the same compound, the Kd in assay [6], in [7], in assay [8], in [9], in assay [10] and in assay [11] was > 30 µM (inactive) in each case. The Kd on Deoxycytidine kinase was > 30 µM (inactive).

On to `CN(C)C(=O)c1cc2cnc(Nc3ccc(N4CCNCC4)cn3)nc2n1C1CCCC1` [RIBOCICLIB], for which the Kd (in assay [1]; on Activin receptor type-1B; in assay [2]; in assay [3]; in assay [4]; in assay [5]) was > 30 µM (inactive) in each case. For the same compound, the Kd in assay [6] was > 30 µM (inactive); in assay [7], > 30 µM (inactive); in assay [8], 12.5 µM (active); in assay [9], > 30 µM (inactive); in [10], > 30 µM (inactive); in [11], > 30 µM (inactive). The Kd at Deoxycytidine kinase was > 30 µM (inactive).

Consider `O=C(Nc1ccc(-c2ccnc(Nc3ccc(N4CCOCC4)cc3)n2)cc1)C1CCCN1` (configuration not stated) [XL-019], for which the Kd (in [1]; at Activin receptor type-1B; in [2]; in assay [3]; in [4]; in [5]) was > 30 µM (inactive) throughout. Further, the Kd in assay [6], in assay [7], in assay [8], in assay [9], in assay [10] and in [11] was > 30 µM (inactive) throughout. Further, the Kd on Deoxycytidine kinase was > 30 µM (inactive).

Turning to `CNC(=O)CN1CCC(Oc2cc3c(Nc4cccc(Cl)c4F)ncnc3cc2OC)CC1` [SAPITINIB], the Kd (in assay [1]; on Activin receptor type-1B; in assay [2]; in assay [3]; in assay [4]; in [5]) was > 30 µM (inactive) each time. In addition, the Kd in assay [6], in [7], in [8], in [9], in assay [10] and in assay [11] was > 30 µM (inactive) in each case. Also, on Deoxycytidine kinase, the Kd is > 30 µM (inactive).

On to `Cc1cc([C@@H](C)Nc2ccccc2C(=O)O)c2nc(N3CCOCC3)cc(=O)n2c1` [AZD-6482], for which the Kd (in assay [1]; on Activin receptor type-1B; in assay [2]; in assay [3]; in assay [4]; in assay [5]) was > 30 µM (inactive) in each case. Moreover, the Kd in assay [6], in assay [7], in assay [8], in assay [9], in assay [10] and in [11] was > 30 µM (inactive) in each case. For the same compound, the Kd on Deoxycytidine kinase is > 30 µM (inactive).

Turning to `CCN1CCN(Cc2ccc(-c3cc4c(N[C@H](C)c5ccccc5)ncnc4[nH]3)cc2)CC1` [AEE-788], the Kd (in [1]; at Activin receptor type-1B; in [2]; in assay [3]; in [4]; in assay [5]) was > 30 µM (inactive) each time. For the same compound, the Kd in assay [6], in assay [7], in assay [8], in [9], in [10] and in assay [11] was > 30 µM (inactive) each time. Further, the Kd at Deoxycytidine kinase was > 30 µM (inactive).
